Results reported in ChEMBL document CHEMBL3885861, “Open TG-GATES”.

Species: Rattus norvegicus
Assay: Open TG-GATES - Regimen: Single
Assay type: toxicity, organism-based, Sprague-Dawley
Design: regimen Single, gender Male, age 6 weeks
Conditions: in vivo, po, route gavage; for Bas / Eos / Fbg / Hb / Ht / Lym / MCHC / MCV / Mono / Neu / RBC / Ret / WBC / Plat: tissue Blood; for KIDNEY_TOTAL: tissue Kidney; for LIVER: tissue Liver; for ALT / AST / BUN / CRE / Ca / Cl / DBIL / GLC / IP / K / LDH / Na / PL / RALB / TBIL / TC / TP / gamma-GTP: tissue Plasma
[1] = 0 mg/kg, 3 h, dose level Control
[2] = 0 mg/kg, 6 h, dose level Control
[3] = 0 mg/kg, 9 h, dose level Control
[4] = 0 mg/kg, 24 h, dose level Control

C[C@@H]1C[C@H]2[C@@H]3CCC4=CC(=O)C=C[C@]4(C)[C@@]3(F)[C@@H](O)C[C@]2(C)[C@@]1(O)C(=O)CO [DEXAMETHASONE]
TERMINAL_BW [1]: 213.8 g
Bas [1]: 0%
Eos [1]: 1%
Fbg [1]: 235.6 mg/dL
Hb [1]: 13 g/dL
Ht [1]: 39.6%
Lym [1]: 74.6%
MCHC [1]: 32.7%
MCV [1]: 64.5 fL
Mono [1]: 7%
Neu [1]: 18%
RBC [1]: 615 x10_4/ul
Ret [1]: 8.3%
WBC [1]: 98.2 x10_2/uL
KIDNEY_TOTAL [1]: 0.6 g
LIVER [1]: 10.5 g
ALT [1]: 38.4 IU/L
AST [1]: 70.4 IU/L
BUN [1]: 11.2 mg/dL
CRE [1]: 0.4 mg/dL
Ca [1]: 10.9 mg/dL
Cl [1]: 103.4 meq/L
DBIL [1]: 0.012 mg/dL
GLC [1]: 193.2 mg/dL
IP [1]: 9.8 mg/dL
K [1]: 4.1 meq/L
LDH [1]: 79.4 IU/L
Na [1]: 140.8 meq/L
PL [1]: 140.6 mg/dL
RALB [1]: 3.7 g/dL
TBIL [1]: 0.044 mg/dL
TC [1]: 79 mg/dL
TP [1]: 5.3 g/dL
gamma-GTP [1]: 0.8 IU/L
TERMINAL_BW [2]: 209.7 g
Bas [2]: 0%
Eos [2]: 0.6%
Fbg [2]: 234.6 mg/dL
Hb [2]: 13.3 g/dL
Ht [2]: 40.4%
Lym [2]: 80.6%
MCHC [2]: 32.9%
MCV [2]: 64.6 fL
Mono [2]: 4.4%
Plat [2]: 118.9 x10_4/uL
RBC [2]: 627.4 x10_4/ul
Ret [2]: 7.5%
WBC [2]: 103.8 x10_2/uL
KIDNEY_TOTAL [2]: 0.7 g
LIVER [2]: 9.7 g
ALT [2]: 34.2 IU/L
AST [2]: 65.2 IU/L
BUN [2]: 10.2 mg/dL
CRE [2]: 0.4 mg/dL
Ca [2]: 11 mg/dL
Cl [2]: 103.8 meq/L
DBIL [2]: 0.014 mg/dL
GLC [2]: 164.8 mg/dL
IP [2]: 9.5 mg/dL
K [2]: 4.3 meq/L
LDH [2]: 74.2 IU/L
Na [2]: 140.2 meq/L
PL [2]: 149.6 mg/dL
RALB [2]: 3.9 g/dL
TBIL [2]: 0.06 mg/dL
TC [2]: 84.8 mg/dL
TP [2]: 5.6 g/dL
gamma-GTP [2]: 0 IU/L
TERMINAL_BW [3]: 215.1 g
Bas [3]: 0%
Eos [3]: 1%
Fbg [3]: 233.2 mg/dL
Hb [3]: 13.2 g/dL
Ht [3]: 39.9%
Lym [3]: 73.2%
MCHC [3]: 33%
MCV [3]: 63.7 fL
Mono [3]: 7%
Neu [3]: 19%
Plat [3]: 125.1 x10_4/uL
RBC [3]: 626.8 x10_4/ul
Ret [3]: 7.8%
WBC [3]: 104.7 x10_2/uL
KIDNEY_TOTAL [3]: 0.7 g
LIVER [3]: 9.4 g
ALT [3]: 30.6 IU/L
AST [3]: 59.4 IU/L
BUN [3]: 11 mg/dL
CRE [3]: 0.3 mg/dL
Ca [3]: 10.5 mg/dL
Cl [3]: 104 meq/L
DBIL [3]: 0.01 mg/dL
GLC [3]: 171.4 mg/dL
IP [3]: 10.1 mg/dL
K [3]: 4.4 meq/L
LDH [3]: 80.4 IU/L
Na [3]: 140.8 meq/L
PL [3]: 141.8 mg/dL
RALB [3]: 3.8 g/dL
TBIL [3]: 0.046 mg/dL
TC [3]: 82.8 mg/dL
TP [3]: 5.5 g/dL
gamma-GTP [3]: 0.8 IU/L
TERMINAL_BW [4]: 229.3 g
Bas [4]: 0%
Eos [4]: 1%
Fbg [4]: 239.6 mg/dL
Hb [4]: 13.2 g/dL
Ht [4]: 40.1%
Lym [4]: 73.4%
MCHC [4]: 33%
MCV [4]: 65.6 fL
Mono [4]: 10.2%
Neu [4]: 15.6%
Plat [4]: 124.7 x10_4/uL
RBC [4]: 611.2 x10_4/ul
Ret [4]: 7.6%
WBC [4]: 107 x10_2/uL
KIDNEY_TOTAL [4]: 0.7 g
LIVER [4]: 11.3 g
ALT [4]: 40.6 IU/L
AST [4]: 67.2 IU/L
BUN [4]: 15.8 mg/dL
CRE [4]: 0.4 mg/dL
Ca [4]: 10.9 mg/dL
Cl [4]: 103 meq/L
DBIL [4]: 0.014 mg/dL
GLC [4]: 192.6 mg/dL
IP [4]: 8 mg/dL
K [4]: 4.4 meq/L
LDH [4]: 89.8 IU/L
Na [4]: 140 meq/L
PL [4]: 172.2 mg/dL
RALB [4]: 3.9 g/dL
TBIL [4]: 0.04 mg/dL
TC [4]: 95.4 mg/dL
TP [4]: 5.7 g/dL
gamma-GTP [4]: 0 IU/L
TERMINAL_BW (1 mg/kg, 3 h, dose level Low): 220.4 g
